Where two headings read alike, the source gives them in different places.
Assays:
[1] = biological target: T1, Recombinant human factor B catalytic domain (Homo sapiens, UniProt P00751); assay: TR-FRET factor B binding assay
Experimental: 5X kinase buffer A (Thermo Fisher, CAT#PV3189) • 3. LANCE Eu-W1024 anti-6xHis antibody (PerkinElmer, CAT#AD0401) • 4. […] Dimethyl sulfoxide (Thermo Fisher Scientific) • 6. Compound - 10 mM stock in DMSO • 7. Victor Nivo multi-mode microplate reader (PerkinElmer) • 8.
The binding affinity of each test compound to factor B was determined using the time-resolved fluorescence resonance energy transfer (TR-FRET) technology. 10 nM recombinant his-tagged factor B catalytic domain, different concentrations of inhibitors, 4 nM LANCE Eu-W1024 anti-6xHis antibody and 100 nM TR-FRET_tool2 tracer were incubated in 1X kinase buffer A for 1 hour. Measurements were performed with a reaction volume of 15 µL by adding 5 µL of the test compound, followed by the addition of 5 µL of a factor B/antibody mixture and 5 µL of the tracer to a white opaque 384-well assay plate.

[2] = biological target: T1, Recombinant human factor B catalytic domain; assay: Target residence time of factor B inhibitors by surface plasmon resonance (SPR); conditions: for t1/2: binding half-life, t1/2 = ln2/koff; for residence time: read-out: Residence time (s)
Excerpt: PBS-P+buffer 10X (Cytiva, CAT. No. 28995084) • 3. Series S Sensor Chip NTA (Cytiva, CAT# BR100532) • 4. Amine coupling kit (Cytiva, CAT#BR100050) • 5. […] Greiner 96-well polypropylene plates (Sigma Aldrich, CAT# M7310-100EA) • 7. […] Biacore 8k (Cytiva)
Before docking the Cytiva NTA chip, the Biacore 8k instrument was pretreated with 1X PBS-P + buffer. […] The protein ligand was further crosslinked to the sensor chip surface via an amine coupling kit. Immobilization and binding experiments were performed at room temperature.
After buffer exchanging to 1X PBS-P + buffer containing 2% (v/v) dimethyl sulfoxide, a pre-run was performed at a flow rate of 30 µl/min for at least 30 minutes to obtain a stable surface. […] The flow rate was 30 µl/min. Before the injection of the compound, a blank test was performed under the same conditions.
The SPR sensorgrams were analysed using Biacore Insight Evaluation software with the double-referencing method. The resulting curves were fitted to a 1 : 1 binding model. […] The kinetic constants (kon, koff and KD) obtained from replicate measurements were averaged. The binding half-life (t1/2) for the 1 : 1 binding model and the two-state reaction model was calculated from the dissociation constant koff, using the formula t1/2 = ln2/koff.

[3] = Pharmacokinetic study in rat eyes; assay type: in vivo, brown Norway rats; conditions: Brown Norway, 2 mg/kg, 2 mpk PO; for half-life: in vivo
Experimental: Three-month-old brown Norway rats were orally gavaged with the example compound as a suspension in 2 equivalents of 1 N HCl + 30% PEG300 + 50% (20% Cremophor EL aqueous solution). At 0.25, 0.5, 1, 6, and 24 hours post-dosing, ocular tissues and plasma were collected from both eyes of the rats at respective time points. The ocular tissues collected comprised retina and the posterior eyecup (RPE/choroid and posterior sclera). Tissues were diluted with phosphate-buffered saline containing 10% acetonitrile, followed by homogenization and centrifugation prior to analysis. At each time point, test article concentrations in plasma and eye homogenate supernatants were measured in four individual retinal samples, four individual posterior eyecup samples and two individual plasma samples by using HPLC-MS/MS. Chromatographic separation was performed on a Waters BEH C18 column (2.1 × 50 mm, 1.7 µm) (MAC-MOD Analytical, Chadds-Ford, PA) with a gradient elution method using water and acetonitrile, both containing 0.025% formic acid-1 M NH4OAc. Mass spectrometry measurements in positive electrospray ionization were performed to quantify mass transitions using [M+H]+ as the precursor ion on an API6500 triple quadrupole mass spectrograph (Sciex, Framingham, MA). The relevant pharmacokinetic parameters were estimated using the non-compartmental method in WinNonlin (Enterprise, version 8.2). Table 3: Rat PK study results (2 mpk PO)

AP complement activation = assay: In vivo assessment of AP complement functional activity in mice (LPS-induced, plasma C3b/iC3b/C3c ELISA); design: species or system C57BL/6 mice; conditions: LPS 2.5 mg/kg i.p. 7.5 hours before end, compound 20 mg/kg oral 20 hours before end
Experimental: 20 hours before the end of the study, female C57BL/6 mice were orally gavaged with the formulation of compound of Example 3 (20 mg/kg, 0.5% (w/v) methylcellulose, 0.5% (v/v) Tween 80). To activate the complement pathway, lipopolysaccharide (LPS) from Salmonella typhimurium (Sigma) was injected intraperitoneally (2.5 mg/kg) 7.5 hours before the end of the study. Control mice received intraperitoneal injections of normal saline and oral gavage administration of vehicles. At the end of the study, plasma samples were collected from the mice. AP complement activation was assessed by measuring plasma C3 cleavage products, C3b/iC3b/C3c, using an ELISA method with rat anti-mouse C3b/iC3b/C3c monoclonal antibodies (clone 2/11, Hycult Biotech, 0.1 µg/well), and a goat anti-rat IgG (whole molecule)-peroxidase (Sigma) diluted in TBST (TBS/0.05% Tween 20). Table 4: Plasma C3b/iC3b/C3c following treatment

[4] = system: alternative complement pathway (AP); assay: Assessment of PD inhibition in rat plasma (ex vivo AP ELISA, MAC deposition on LPS, serum after oral dosing); design: species or system Sprague-Dawley rats; conditions: over 24 hours; for inhibition at 2 mg/kg: Rattus norvegicus, rats, oral 2 mg/kg, AP deposition in 50% serum, read-out: Serum PD inhibition (%) over 24 hours (2 mpk)
Experimental: Male Sprague-Dawley rats (n = 3) were orally administered with vehicles (0.5% (w/v) methylcellulose, 0.5% (v/v) Tween 80), compound Iptacopan, or example compound formulations (in 0.5% (w/v) methylcellulose, 0.5% (v/v) Tween 80) at a dose of 2 mg/kg. Rat serum samples were collected at 0.25, 0.5, 1, 2, 4, 6, 8, and 24 hours post-dosing, and stored at -80°C. […] The coated plates were washed with GVB buffer (Complement technology) containing 5 mM MgCl2 and 10 mM EGTA (blocking both classical and lectin pathways). The collected serum samples were diluted by adding an equal volume of GVB buffer containing 10 mM MgCl2 and 20 mM EGTA. For negative controls, serum was diluted with GVB buffer containing 40 mM EDTA (blocking all complement pathways). Aliquots (50 ul) of 50% serum samples were added to the LPS-coated wells. The reaction plate was incubated at 37°C for 20 minutes (rat serum). […] Baseline (EDTA-treated serum) and maximum signal (EGTA-treated serum from vehicle-treated rats) were used to generate a percent inhibition value for each well.
Each data point in FIG. 37 represents the mean AP activity in rat serum. […] Table 5: Rat 24-hour PD study results

[5] = Salt form screening (natural evaporation and reactive crystallisation); assay type: physicochemical; design: key to PLM/XRPD or slurry solvent: "√" indicates the presence of birefringence phenomenon; "×" indicates the absence of birefringence phenomenon; conditions: for PLM/XRPD or slurry solvent: 1:1; for Characterization result: reactive crystallisation, Ethyl acetate, 1:1, stirred room temperature about 24 hours
Experimental: Salt form screening experiments were conducted via the solvent evaporation method. About 10 mg of the free base of Example 3 was weighed into a 2 mL glass vial and dissolved in 100 µL of an organic solvent. A solution of the counterion acid in methanol was added dropwise at a molar ratio of 1:1. The resulting clear solution was allowed to evaporate at room temperature. The obtained solid was first characterised by PLM. If no birefringence was observed, the solids were slurried by adding a solvent. If birefringence was observed, the solids were further characterised by XRPD. Compounds with high crystallinity were selected for characterization by DSC and TGA.
Approximately 10 mg of the free base compound of Example 3 was weighed into a 2 mL glass vial and dissolved in 100 µL of an organic solvent. 22 µL of a solution of the acid in ethyl acetate was slowly added dropwise at a molar ratio of 1 : 1 under stirring. The resulting clear solution was stirred at room temperature for approximately 24 hours. The resulting solid was dried in vacuo at 40°C and characterised by XRPD, DSC and TGA.

[6] = plasma, read-out: Plasma AUC0-last
[7] = retina, read-out: Retina AUC0-last

T1 sequence (P00751 470-764): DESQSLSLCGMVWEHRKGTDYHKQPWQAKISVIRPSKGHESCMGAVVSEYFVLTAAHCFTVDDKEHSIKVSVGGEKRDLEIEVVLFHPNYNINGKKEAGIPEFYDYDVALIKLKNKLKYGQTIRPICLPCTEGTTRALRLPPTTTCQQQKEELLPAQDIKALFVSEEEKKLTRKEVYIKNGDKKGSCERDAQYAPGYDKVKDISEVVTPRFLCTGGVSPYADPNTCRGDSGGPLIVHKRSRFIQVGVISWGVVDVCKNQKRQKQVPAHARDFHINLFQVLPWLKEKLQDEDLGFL

## COc1cc(C)c2[nH]ccc2c1CN1CCC2(C[C@H]1c1ccc(C(=O)O)cc1C(F)F)CC(F)(F)C2 [Example 1]
[1]
  IC50: < 2 nM
[2]
  Kd: 0.77 nM
  t1/2: 0.8911 h
  residence time: 4630 s

## Cc1cc(C2CC2)c(CN2CCC3(C[C@H]2c2ccc(C(=O)O)cc2)CC(F)(F)C3)c2cc[nH]c12 [Example 2]
[1]
  IC50: < 2 nM
[2]
  Kd: 0.38 nM
  t1/2: 1.214 h
  residence time: 6310 s

## COc1cc(C)c2[nH]ccc2c1CN1CCC2(C[C@H]1c1ccc(C(=O)O)cc1C)CC(F)(F)C2 [Example 3, (S)-4-(2,2-difluoro-7-((5-methoxy-7-methyl-1H-indol-4-yl)methyl)-7-azaspiro[3.5]nonan-6-yl)-3-methylbenzoic acid]
[3]; [6]
  AUC(0-t): 12.7 µM·h
[3]; [7]
  AUC(0-t): 0.796 µM·h
[3]
  half-life: 1330 min
AP complement activation
  Plasma C3b/iC3b/C3c (1 x 10^6): 210.25 ^ns 1 x 10^6
[4]; 2 mg/kg oral, 50% serum
  inhibitory effects in the ex vivo PD assay in rats: sustained inhibitory effects
[4]
  inhibition at 2 mg/kg: 57.5%
[5]; natural evaporation, Acetone, Hydrobromic acid (22 µL), slurried in ethyl acetate
  Post-slurry PLM/XRPD: √, crystal form A of hydrobromide
[5]; natural evaporation, Acetone, Hydrochloric acid (22 µL), slurried in ethyl acetate
  Post-slurry PLM/XRPD: √, high crystallinity, crystal form A of hydrochloride
[5]; natural evaporation, Acetone, Methanesulphonic acid (22 µL), slurried in ethyl acetate
  Post-slurry PLM/XRPD: √, crystal form A of methanesulfonat e
[5]; natural evaporation, Acetone, p-Toluenesulphonic acid (22 µL), slurried in ethyl acetate
  Post-slurry PLM/XRPD: √, crystal form A of p-toluenesulfonate
[5]; natural evaporation, Methanol, Hydrochloric acid (22 µL), slurried in 2-methyltetrahydrofuran
  Post-slurry PLM/XRPD: √, crystal form B of hydrochloride
[5]; natural evaporation, solvent Acetone, Hydrobromic acid (22 µL)
  PLM/XRPD or slurry solvent: ×, ethyl acetate
[5]; natural evaporation, solvent Acetone, Hydrochloric acid (22 µL)
  PLM/XRPD or slurry solvent: ×, ethyl acetate
[5]; natural evaporation, solvent Acetone, Methanesulphonic acid (22 µL)
  PLM/XRPD or slurry solvent: ×, ethyl acetate
[5]; natural evaporation, solvent Acetone, p-Toluenesulphonic acid (22 µL)
  PLM/XRPD or slurry solvent: ×, ethyl acetate
[5]; natural evaporation, solvent Methanol, Adipic acid (22 µL)
  PLM/XRPD or slurry solvent: √, crystal form A of adipate
[5]; natural evaporation, solvent Methanol, Fumaric acid (88 µL)
  PLM/XRPD or slurry solvent: √, crystal form A of fumarate
[5]; natural evaporation, solvent Methanol, Hippuric acid (55 µL)
  PLM/XRPD or slurry solvent: √, crystal form A of hippurate
[5]; natural evaporation, solvent Methanol, Hydrobromic acid (22 µL)
  PLM/XRPD or slurry solvent: √, high crystallinity
[5]; natural evaporation, solvent Methanol, Hydrochloric acid (22 µL)
  PLM/XRPD or slurry solvent: ×, 2-methyltetrahydrofuran
[5]; natural evaporation, solvent Methanol, Malonic acid (22 µL)
  PLM/XRPD or slurry solvent: √, crystal form A of malonate
[5]; natural evaporation, solvent Methanol, Oxalic acid (22 µL)
  PLM/XRPD or slurry solvent: √, crystal form A of oxalate
[5]; natural evaporation, solvent Methanol, Succinic acid (22 µL)
  PLM/XRPD or slurry solvent: √, crystal form A of succinate
[5]; Hydrobromic acid
  Characterization result: Crystal form A of hydrobromide
[5]; Hydrochloric acid
  Characterization result: Crystal form A of hydrochloride
[5]; Methanesulphonic acid
  Characterization result: Crystal form A of methanesulfonate
[5]; solvent Ethyl acetate, Hydrobromic acid (22 µL), Clear → Suspension (slurried)
  PLM/XRPD or slurry solvent: √, crystal form A of hydrobromide
[5]; solvent Toluene, Hydrobromic acid (22 µL), Clear → Suspension (slurried)
  PLM/XRPD or slurry solvent: √, crystal form A of hydrobromide
[1]
  IC50: < 2 nM
[2]
  Kd: 0.17 nM
  t1/2: 1.188 h
  residence time: 6170 s

## CCO[C@H]1CCN(Cc2c(OC)cc(C)c3[nH]ccc23)[C@H](c2ccc(C(=O)O)cc2)C1 [Iptacopan, reference compound]
[3]; [6]
  AUC(0-t): 13.5 µM·h
[3]; [7]
  AUC(0-t): 0.141 µM·h
[3]
  half-life: 318 min
[4]
  inhibition at 2 mg/kg: -3%
